According to article PMC12344696, “Elucidation of the Synergistic Interaction Between Bilirubin and Casein Protein: An Integrated Spectroscopy and Computational Approach” (Biomacromolecules, 2025):

Molecular target: T1, casein (CAS) protein; CAS micelles
T1 construct: gene CSN1S1; whole casein mixture (alpha, beta, kappa), self-assembled micelles above CMC
Test: UV-vis absorption titration of BIL with casein, Hill1 fit
Settings: phosphate buffer pH 7.3, 298 K; casein mixture 0.05-3 mg/mL across the CMC; converted from a mg/mL fit with average casein mass 22,500 Da; read-out: binding constant (converted)

- Kd: 33.3 µM
SMILES: C=CC1=C(C)/C(=C/c2[nH]c(Cc3[nH]c(/C=C4\NC(=O)C(C)=C4C=C)c(C)c3CCC(=O)O)c(CCC(=O)O)c2C)NC1=O [BIL, bilirubin]
